From patent US10646553B2, “Use of recombinant human calcineurin B subunit” (HAIKOU QILI PHARMACEUTICAL CO., LTD., priority 2015, dated 2020)

Columns and labels:
[1] = Survival of tumour-bearing animals during the experiment; assay type: in vivo, BALB/c nude mice
From the text: (§1) In one embodiment of the present invention, according to the “Technical Guidelines for Non-Clinical Studies of Cytotoxic Antitumor Drugs” and “Guidelines for Pharmacodynamics of Antitumor Drugs”, IVIS Kinetics (a small animal live imaging system) was used to dynamically analyze the therapeutic effect of rhCNB for injection on the BALB/c nude mice bearing the human gastric cancer cell MGC-803 carcinoma in situ. Firstly, a BALB/c nude mouse model bearing subcutaneous transplantation tumor of human gastric cancer cell MGC-803 was established, and then a BALB/c nude mouse model bearing transplantation tumor in situ of human gastric cancer cell MGC-803 was established. […] Each experimental group is administered once daily for 15 consecutive days, except that the positive control high-dose administration group of cisplatin for injection is administered for 5 days. […] Animals were examined once using Caliper IVIS Kinetics (small animal live imaging system) before the first administration (on the administration day), every other 3 days after the first administration and on the 7th day after the last administration, respectively, and body weight was measured before each examination. At the end of the last examination, animals were sacrificed and roughly necropsied, and organs inoculated with tumor (including tumor tissues) were removed for pathological examination and immunohistochemical assay of apoptosis.
The high-, medium-, low-dose groups and progressively increasing-dose group of the test sample were administered once daily for 15 consecutive days;

[2] = test system: transplantation tumor of human gastric cancer cell MGC-803 carcinoma in situ; assay: Bioluminescence detection (IVIS small animal live imaging) and necropsy of orthotopic MGC-803 tumour in nude mice; assay type: in vivo, BALB/c nude mice
From the text: as §1
Human gastric cancer cell MGC-803 was routinely cultured in vitro, digested, centrifuged, and then prepared into a cell suspension with a concentration of approximately 1×10^7 cells/mL. The cells were inoculated subcutaneously into the right armpit of mice at an amount of 0.2 mL/mouse.
Well-grown subcutaneously transplanted tumors were removed and cut into tumor tissue blocks with a size of approximately 2×2×1 mm for use. Animals to be inoculated were feed 12 hours before surgical operation and subjected to gas anesthesia with isoflurane. The anaesthetized animals were placed in supine position. The skin 2˜5 mm below the xiphoid process was cut horizontally layer-by-layer on the left side to give an opening of about 1 cm. Stomach was pull out gently using a pincette and exposed. The tumor tissue block was placed above the side near the pylorus of greater curvature of stomach of the nude mice with surgical suture #1 by “purse-string suture”, so that the tumor tissue block was wrapped therein. The skin was sutured layer by layer and disinfected by Entoiodine, and then the animals were returned back to the cage for normal feeding. 7 days after surgery, the animals were examined using the small animal live imaging system, grouped, and administrated.
The route for administration was by tail vein injection.
Animals were detected once using Caliper IVIS Kinetics small animal live imaging system at the following time point: before the first administration (on the administration day), every other 3 days after the first administration, and on the 7th day after the last administration, respectively. The body weight was measured before each detection. A substrate solution (with a concentration of 15 mg/mL) was injected intraperitoneally according to 0.1 mL/10 g body weight and a bioluminescence detection was performed 10˜15 min after injection.
The data obtained from the experiments were statistically analyzed using SPSS analysis software, and the significance of difference between the administration groups and the vehicle control group, and among each administration group was compared.

[3] = X, 2 mg/kg once daily 15 d, d12
[4] = X, 2 mg/kg once daily 15 d, d15
[5] = SD, low-dose 1 mg/kg once daily 15 d, d3
[6] = SD, low-dose 1 mg/kg once daily 15 d, d6
[7] = SD, low-dose 1 mg/kg once daily 15 d, d9
[8] = SD, low-dose 1 mg/kg once daily 15 d, d12
[9] = SD, low-dose 1 mg/kg once daily 15 d, d15
[10] = SG, high-dose 5 mg/kg once daily 5 d, d3
[11] = SG, high-dose 5 mg/kg once daily 5 d, d6

CC[C@@]1(O)C(=O)OCc2c1cc1n(c2=O)Cc2cc3cc(O)ccc3nc2-1 [hydroxycamptothecin for injection, hydroxycamptothecin]
number of surviving animals ([1]; X, 2 mg/kg once daily 15 d, d0 before administration): (10)
number of surviving animals ([1]; X, 2 mg/kg once daily 15 d, d3): (10)
number of surviving animals ([1]; X, 2 mg/kg once daily 15 d, d6): (9)
number of surviving animals ([1]; X, 2 mg/kg once daily 15 d, d9): (9)
number of surviving animals [1, 3]: (9)
number of surviving animals [1, 4]: (9)
number of surviving animals ([1]; X, 2 mg/kg once daily 15 d, d21 (7th day after last administration)): (7)
Number of animals in which tumor is not detectable and not observed ([2]; X, 2 mg/kg once daily 15 d, d0): 0
Number of animals in which tumor is not detectable and not observed ([2]; X, 2 mg/kg once daily 15 d, d3): 0
Number of animals in which tumor is not detectable and not observed ([2]; X, 2 mg/kg once daily 15 d, d6): 0
Number of animals in which tumor is not detectable and not observed ([2]; X, 2 mg/kg once daily 15 d, d9): 0
Number of animals in which tumor is not detectable and not observed [2, 3]: 0
Number of animals in which tumor is not detectable and not observed [2, 4]: 0
Number of animals in which tumor is not detectable and not observed ([2]; X, 2 mg/kg once daily 15 d, recovery period d7): 0

N.N.[Cl][Pt][Cl] [cisplatin for injection, cisplatin]
number of surviving animals ([1]; SD, low-dose 1 mg/kg once daily 15 d, d0 before administration): (10)
number of surviving animals [1, 5]: (10)
number of surviving animals [1, 6]: (10)
number of surviving animals [1, 7]: (10)
number of surviving animals [1, 8]: (10)
number of surviving animals [1, 9]: (9)
number of surviving animals ([1]; SD, low-dose 1 mg/kg once daily 15 d, d21 (7th day after last administration)): (4)
number of surviving animals ([1]; SG, high-dose 5 mg/kg once daily 5 d, d0 before administration): (10)
number of surviving animals [1, 10]: (10)
number of surviving animals [1, 11]: (10)
cause of death of the animals ([1]; during the experiment, preliminarily believed): mainly due to drug toxicity
Number of animals in which tumor is not detectable and not observed ([2]; SD, low-dose 1 mg/kg once daily 15 d, d0): 0
Number of animals in which tumor is not detectable and not observed [2, 5]: 0
Number of animals in which tumor is not detectable and not observed [2, 6]: 0
Number of animals in which tumor is not detectable and not observed [2, 7]: 0
Number of animals in which tumor is not detectable and not observed [2, 8]: 0
Number of animals in which tumor is not detectable and not observed [2, 9]: 0
Number of animals in which tumor is not detectable and not observed ([2]; SD, low-dose 1 mg/kg once daily 15 d, recovery period d7): 0
Number of animals in which tumor is not detectable and not observed ([2]; SG, high-dose 5 mg/kg once daily 5 d, d0): 0
Number of animals in which tumor is not detectable and not observed [2, 10]: 0
Number of animals in which tumor is not detectable and not observed [2, 11]: 0
Number of animals in which tumor is not detectable and not observed ([2]; SG, high-dose 5 mg/kg once daily 5 d, d9): 0
Number of animals in which tumor is not detectable and not observed ([2]; SG, high-dose 5 mg/kg once daily 5 d, d12): 0
Number of animals in which tumor is not detectable and not observed ([2]; SG, high-dose 5 mg/kg once daily 5 d, d15): 0
Number of animals in which tumor is not detectable and not observed ([2]; SG, high-dose 5 mg/kg once daily 5 d, recovery period d7): 0
bioluminescence detection data ([2]; positive control high-dose group 5 mg/kg, after the 6th day administration): sharp increase
